Assays:
[1] = Vapor pressure of the sublimable substance; settings: absolute pressure
Experimental: The sublimable substance has a vapor pressure of 0.1 Pa or more and 1.0 Pa or less at normal temperatures. Here, the normal temperatures include a room temperature. The normal temperatures fall within a temperature range of 5° C. or more and 35° C. or less, for example. The normal temperatures fall within a temperature range of 10° C. or more and 30° C. or less, for example. In this specification, the value of vapor pressure is indicated as absolute pressure relative to absolute vacuum.

[2] = From the text: The ability of the solvent to dissolve the sublimable substance is indicated, for example, by the solubility of the sublimable substance in the solvent. Hereinafter, the solubility of the sublimable substance in the solvent is appropriately referred to as solubility Rm. The solubility Rm is a limit amount of sublimable substance that is soluble in a certain amount of solvent. As the solubility Rm increases, the ability of the solvent to dissolve the sublimable substance increases. Therefore, the solubility Rm is preferably high.
In general, the solubility Rm varies with temperature. The treatment liquid is used at normal temperatures. Therefore, the solubility Rm is preferably high at normal temperatures. The solubility Rm is preferably 150 vol % or more at normal temperatures.
For example, when the maximum volume of the sublimable substance soluble in the solvent of volume Q2c is Q1m, the solubility Rm is a ratio of the maximum volume Q1m to the volume Q2c. Specifically, the solubility Rm is defined by the following formula.

SMILES | vapor pressure at 25° C. [1] | solubility Rm at 25° C. [2] | solubility Rm at normal temperatures [2]
ON=C1CCCCC1 [cyclohexanone oxime] | 1.45 Pa | – | –
CC(=NO)C(C)(C)C [pinacolone oxime] | 35.3 Pa | – | –
CC(=NO)c1ccccc1 [acetophenone oxime] | 0.27 Pa | 186 vol % | ≥ 150 vol %
